Laboratory results as given in patent US20250171430A1, “PYRAZOLYL COMPOUNDS AS KV7 CHANNEL ACTIVATORS” (Biohaven Therapeutics Ltd., priority 2022, published 2025).

target: T1, Kv7.2/7.3 (Homo sapiens, UniProt O43525+O43526); assay: Kv7.2/7.3 Activation Assay (Thallium Flux Assay); type: cell-based; conditions: hKV7.2/7.3 cell line; test compound at single concentration of 10 μM; fluorescence at 90 sec normalized to positive control (retigabine, 30 μM)
T1 construct: Kv7.2 tetracycline-induced, Kv7.3 constitutive
How it was run: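 Human Kv7.2/7.3 cells with Kv7.2 induced overnight by 10 ng/mL tetracycline were loaded with FluxOR II Green for 1 h at 37 °C. Compounds were tested at 10 μM in 0.1% DMSO/extracellular solution, pH 7.4. Thallium/potassium stimulus was added after a 15 s baseline, and 90 s fluorescence (ex 475/em 530 nm) was normalized to 30 μM retigabine.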

| Structure (SMILES) | Kv7.2/7.3 Activity |
| --- | --- |
| Cn1nc(NC(=O)[C@H]2CC2(F)F)c(C2CCC2)c1-c1ccccc1F [Compound 161, (R)-N-(4-cyclobutyl-5-(2-fluorophenyl)-1-methyl-1H-pyrazol-3-yl)-2,2-difluorocyclopropane-1-carboxamide] | + (“+” Moderate Activity 0.15-0.7) |
| Cn1nc(NC(=O)[C@@H]2CC2(F)F)c(C2CCC2)c1-c1ccccc1F [Compound 162, (S)-N-(4-cyclobutyl-5-(2-fluorophenyl)-1-methyl-1H-pyrazol-3-yl)-2,2-difluorocyclopropane-1-carboxamide] | + (“+” Moderate Activity 0.15-0.7) |
| Cn1nc(NC(=O)[C@@H]2CC2(F)F)c(C2CC2)c1-c1ccc(F)cc1 [Compound 163, (S)-N-(4-cyclopropyl-5-(4-fluorophenyl)-1-methyl-1H-pyrazol-3-yl)-2,2-difluorocyclopropane-1-carboxamide] | + (“+” Moderate Activity 0.15-0.7) |
| Cn1nc(NC(=O)[C@H]2CC2(F)F)c(C2CC2)c1-c1ccc(F)cc1 [Compound 164, (R)-N-(4-cyclopropyl-5-(4-fluorophenyl)-1-methyl-1H-pyrazol-3-yl)-2,2-difluorocyclopropane-1-carboxamide] | ++ (“++” High Activity ≥ 0.7) |
| Cn1nc(NC(=O)C2(C(F)(F)F)CC2)c(C2CC2)c1-c1ccc(F)cc1 [Compound 165, N-(4-cyclopropyl-5-(4-fluorophenyl)-1-methyl-1H-pyrazol-3-yl)-1-(trifluoromethyl)cyclopropane-1-carboxamide] | ++ (“++” High Activity ≥ 0.7) |
| Cn1nc(NC(=O)C2(C(F)(F)F)CC2)c(C2CCC2)c1-c1cccc(F)c1 [Compound 166, N-(4-cyclobutyl-5-(3-fluorophenyl)-1-methyl-1H-pyrazol-3-yl)-1-(trifluoromethyl)cyclopropane-1-carboxamide] | ++ (“++” High Activity ≥ 0.7) |
| Cn1nc(NC(=O)[C@@H]2CC2(F)F)c(C2CCC2)c1-c1cccc(F)c1 [Compound 167, (S)-N-(4-cyclobutyl-5-(3-fluorophenyl)-1-methyl-1H-pyrazol-3-yl)-2,2-difluorocyclopropane-1-carboxamide] | + (“+” Moderate Activity 0.15-0.7) |
| Cn1nc(NC(=O)[C@H]2CC2(F)F)c(C2CCC2)c1-c1cccc(F)c1 [Compound 168, (R)-N-(4-cyclobutyl-5-(3-fluorophenyl)-1-methyl-1H-pyrazol-3-yl)-2,2-difluorocyclopropane-1-carboxamide] | ++ (“++” High Activity ≥ 0.7) |
| O=C(Nc1nn(CC(F)(F)F)c(-c2ccc(F)cc2)c1C1CCC1)C1(C(F)(F)F)CC1 [Compound 169, N-(4-cyclobutyl-5-(4-fluorophenyl)-1-(2,2,2-trifluoroethyl)-1H-pyrazol-3-yl)-1-(trifluoromethyl)cyclopropane-1-carboxamide] | + (“+” Moderate Activity 0.15-0.7) |
| Cn1nc(NC(=O)C2(C(F)(F)F)CC2)c(C2CCC2)c1-c1ccccc1F [Compound 170, N-(4-cyclobutyl-5-(2-fluorophenyl)-1-methyl-1H-pyrazol-3-yl)-1-(trifluoromethyl)cyclopropane-1-carboxamide] | + (“+” Moderate Activity 0.15-0.7) |
| Cn1nc(NC(=O)C2(C(C)(F)F)CC2)c(C2CCC2)c1-c1ccccc1F [Compound 171, N-(4-cyclobutyl-5-(2-fluorophenyl)-1-methyl-1H-pyrazol-3-yl)-1-(1,1-difluoroethyl)cyclopropane-1-carboxamide] | + (“+” Moderate Activity 0.15-0.7) |
| Cn1nc(NC(=O)C(C)(C)C(F)F)c(C2CCC2)c1-c1ccccc1F [Compound 172, N-(4-cyclobutyl-5-(2-fluorophenyl)-1-methyl-1H-pyrazol-3-yl)-3,3-difluoro-2,2-dimethylpropanamide] | + (“+” Moderate Activity 0.15-0.7) |
| Cn1nc(NC(=O)[C@H]2CC2(F)F)c(C2CCC2)c1-c1ccc(OC(F)(F)F)cc1 [Compound 173, (R)-N-(4-cyclobutyl-1-methyl-5-(4-(trifluoromethoxy)phenyl)-1H-pyrazol-3-yl)-2,2-difluorocyclopropane-1-carboxamide] | − (“−” No Activity < 0.15) |
| Cn1nc(NC(=O)[C@@H]2CC2(F)F)c(C2CCC2)c1-c1ccc(OC(F)(F)F)cc1 [Compound 174, (S)-N-(4-cyclobutyl-1-methyl-5-(4-(trifluoromethoxy)phenyl)-1H-pyrazol-3-yl)-2,2-difluorocyclopropane-1-carboxamide] | + (“+” Moderate Activity 0.15-0.7) |
| Cn1nc(NC(=O)CC(C)(O)c2ccc(F)cc2F)c(C2CCC2)c1-c1ccc(OC(F)(F)F)cc1 (centres unmarked) [Compound 175, N-(4-cyclobutyl-1-methyl-5-(4-(trifluoromethoxy)phenyl)-1H-pyrazol-3-yl)-3-(2,4-difluorophenyl)-3-hydroxybutanamide] | ++ (“++” High Activity ≥ 0.7) |
| Cn1nc(NC(=O)CC(C)(O)c2ccc(F)cc2F)c(C2CCC2)c1-c1ccc(OC(F)(F)F)cc1 (centres unmarked) [Compound 176, N-(4-cyclobutyl-1-methyl-5-(4-(trifluoromethoxy)phenyl)-1H-pyrazol-3-yl)-3-(2,4-difluorophenyl)-3-hydroxybutanamide] | ++ (“++” High Activity ≥ 0.7) |
| C[C@H](C(=O)Nc1nn(C)c(-c2ccc(OC(F)(F)F)cc2)c1C1CCC1)C1CC(F)(F)C1 [Compound 177, (S)-N-(4-cyclobutyl-1-methyl-5-(4-(trifluoromethoxy)phenyl)-1H-pyrazol-3-yl)-2-(3,3-difluorocyclobutyl)propanamide] | ++ (“++” High Activity ≥ 0.7) |
| C[C@@H](C(=O)Nc1nn(C)c(-c2ccc(OC(F)(F)F)cc2)c1C1CCC1)C1CC(F)(F)C1 [Compound 178, (R)-N-(4-cyclobutyl-1-methyl-5-(4-(trifluoromethoxy)phenyl)-1H-pyrazol-3-yl)-2-(3,3-difluorocyclobutyl)propanamide] | − (“−” No Activity < 0.15) |
| Cn1nc(NC(=O)C23CC(C(F)(F)F)(C2)C3)c(C2CCC2)c1-c1ccc(F)cc1 [Compound 179, N-(4-cyclobutyl-5-(4-fluorophenyl)-1-methyl-1H-pyrazol-3-yl)-3-(trifluoromethyl)bicyclo[1.1.1]pentane-1-carboxamide] | ++ (“++” High Activity ≥ 0.7) |
| Cn1nc(NC(=O)CC(C(F)(F)F)C(F)(F)F)c(C2CCC2)c1-c1ccc(OC(F)(F)F)cc1 [Compound 180, N-(4-cyclobutyl-1-methyl-5-(4-(trifluoromethoxy)phenyl)-1H-pyrazol-3-yl)-4,4,4-trifluoro-3-(trifluoromethyl)butanamide] | ++ (“++” High Activity ≥ 0.7) |
| Cn1nc(NC(=O)C(C)(O)c2ccccc2)c(C2CCC2)c1-c1ccc(OC(F)(F)F)cc1 (centres unmarked) [Compound 181, N-(4-cyclobutyl-1-methyl-5-(4-(trifluoromethoxy)phenyl)-1H-pyrazol-3-yl)-2-hydroxy-2-phenylpropanamide] | − (“−” No Activity < 0.15) |
| Cn1nc(NC(=O)C(C)(O)c2ccccc2)c(C2CCC2)c1-c1ccc(OC(F)(F)F)cc1 (centres unmarked) [Compound 182, N-(4-cyclobutyl-1-methyl-5-(4-(trifluoromethoxy)phenyl)-1H-pyrazol-3-yl)-2-hydroxy-2-phenylpropanamide] | ++ (“++” High Activity ≥ 0.7) |
| Cn1nc(NC(=O)[C@H]2C[C@@H](C)C2)c(C2CCC2)c1-c1ccc(OC(F)(F)F)cc1 [Compound 183, (1s,3s)-N-(4-cyclobutyl-1-methyl-5-(4-(trifluoromethoxy)phenyl)-1H-pyrazol-3-yl)-3-methylcyclobutane-1-carboxamide] | ++ (“++” High Activity ≥ 0.7) |
| Cn1nc(NC(=O)[C@H]2C[C@H](C)C2)c(C2CCC2)c1-c1ccc(OC(F)(F)F)cc1 [Compound 184, (1r,3r)-N-(4-cyclobutyl-1-methyl-5-(4-(trifluoromethoxy)phenyl)-1H-pyrazol-3-yl)-3-methylcyclobutane-1-carboxamide] | ++ (“++” High Activity ≥ 0.7) |
| Cn1nc(NC(=O)C2CC(C)(C)C2)c(C2CCC2)c1-c1ccc(OC(F)(F)F)cc1 [Compound 185, N-(4-cyclobutyl-1-methyl-5-(4-(trifluoromethoxy)phenyl)-1H-pyrazol-3-yl)-3,3-dimethylcyclobutane-1-carboxamide] | ++ (“++” High Activity ≥ 0.7) |
| Cn1nc(NC(=O)C2CC3(C2)CC3(F)F)c(C2CCC2)c1-c1ccc(OC(F)(F)F)cc1 (centres unmarked) [Compound 186, N-(4-cyclobutyl-1-methyl-5-(4-(trifluoromethoxy)phenyl)-1H-pyrazol-3-yl)-1,1-difluorospiro[2.3]hexane-5-carboxamide] | ++ (“++” High Activity ≥ 0.7) |
| Cn1nc(NC(=O)C2CC3(CCC3)C2)c(C2CCC2)c1-c1ccc(F)cc1 [Compound 187, N-(4-cyclobutyl-5-(4-fluorophenyl)-1-methyl-1H-pyrazol-3-yl)spiro[3.3]heptane-2-carboxamide] | ++ (“++” High Activity ≥ 0.7) |
| Cn1nc(NC(=O)C2CC(F)(F)C2)c(C2CCC2)c1C1CC(C)(C)C1 [Compound 188, N-(4-cyclobutyl-5-(3,3-dimethylcyclobutyl)-1-methyl-1H-pyrazol-3-yl)-3,3-difluorocyclobutane-1-carboxamide] | ++ (“++” High Activity ≥ 0.7) |
| Cn1nc(NC(=O)C2CC(F)(F)C2)c(C2CCC2)c1-c1ccc(OC(F)(F)F)cc1 [Compound 189, N-(4-cyclobutyl-1-methyl-5-(4-(trifluoromethoxy)phenyl)-1H-pyrazol-3-yl)-3,3-difluorocyclobutane-1-carboxamide] | + (“+” Moderate Activity 0.15-0.7) |
